The source of these data is patent publication US20220324835A1 (Nurix Therapeutics, Inc., priority 2018, published 2022).

Structures are written as SMILES. pIC50, pKd: −log10 of the molar value.

Test [1] addresses T1, Cbl-b (Homo sapiens, UniProt Q13191). Briefly: Cbl-b activity assay (Cbl-b inhibition assay), TR-FRET of Cbl-b interaction with UbcH5B-Ub. It is filed as biochemical. The conditions noted are these: assay buffer with 100 mM NaCl, 60 nM Src kinase; read-out: Cbl-b activity IC50. The procedure, abridged:
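UbcH5B (C85K) conjugated to N-terminally Bodipy-Fluorescein-labeled ubiquitin served as the fluorescent partner. After compound preincubation, Src kinase (60 nM) with 1 mM ATP and 5 mM MgCl2 (final) was added for 1.5 h, followed by a further 1 h incubation. Some values were obtained with 50 mM NaCl and 30 nM Src.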
For orientation: TR-FRET usually uses a lanthanide donor and a delayed reading to cut background.

Test [2] deals with T-cell. Briefly: IL-2 secretion from T-cells co-stimulated with anti-CD3 and anti-CD28 antibody (Biological Example 2). Format: cell-based, human. The conditions noted are these: Homo sapiens, T-cell, read-out: IL-2 secretion Anti-CD3/Anti-CD28 stimulation; for fold induction at 0.3 µM: 0.3 μM Cbl-b inhibitor; for fold induction at 1 µM: 1 μM Cbl-b inhibitor; for fold induction at 4 µM: 4 μM Cbl-b inhibitor. An outline of the steps: (§1)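 T-cells were stimulated with anti-CD3 antibody alone or with anti-CD28 antibody, in the presence or absence of Cbl-b inhibitor. IL-2 secretion or CD25 surface staining was measured, and values expressed as fold over the uninhibited baseline […].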

Test [3] relates to T-cell. Briefly: CD25 cell surface staining on T-cells co-stimulated with anti-CD3 and anti-CD28 antibody (Biological Example 2). It is filed as cell-based, human. The conditions noted are these: Homo sapiens, T-cell, read-out: CD25 staining Anti-CD3/Anti-CD28 stimulation; for fold induction at 0.3 µM: 0.3 μM Cbl-b inhibitor; for fold induction at 1 µM: 1 μM Cbl-b inhibitor; for fold induction at 4 µM: 4 μM Cbl-b inhibitor. The procedure, abridged: as §1

Test [4] concerns the target T1, Cbl-b. Briefly: Cbl-b inhibition assay (Cbl-b activity assay, FRET, Biological Example 1; 100 mM NaCl, 60 nM Src kinase). It is filed as biochemical. The settings on record: upper bound stated in text lists; read-out: IC50 values in the Cbl-b inhibition assay of Biological Example 1. The procedure, abridged: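 Here, the E2 UbcH5B, irreversibly linked to Bodipy-fluorescein ubiquitin, binds Cbl-b once Src kinase phosphorylates it; Cbl-b carries an N-terminal biotinylated Avi-tag captured by streptavidin-terbium. An absent FRET signal indicates inhibition.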

The target in test [5] is Cbl-b (residues 36-427) (Homo sapiens, UniProt Q13191). Briefly: Cbl-b binding assay (SPR, Biacore T200). The conditions noted are these: 20° C., 1:1 binding model. An outline of the steps: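 Steps: capture protein on NeutrAvidin surface; inject compound dilutions (8 or 10 points from 100 or 50 μM) 50 s; allow 90-180 s dissociation; regenerate 20 s with 0.3 M NaCl. Runs at 20° C in HEPES pH 7.5/100 mM NaCl/2% DMSO; 1:1 fitting.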

Setting [6] is: fold change over baseline, primary human total T-cells.
Setting [7] is: fold change over baseline (anti-CD3/anti-CD28 stimulated T-cells without inhibitor).

Cbl-b (residues 36-427), sequence (Q13191 36-427): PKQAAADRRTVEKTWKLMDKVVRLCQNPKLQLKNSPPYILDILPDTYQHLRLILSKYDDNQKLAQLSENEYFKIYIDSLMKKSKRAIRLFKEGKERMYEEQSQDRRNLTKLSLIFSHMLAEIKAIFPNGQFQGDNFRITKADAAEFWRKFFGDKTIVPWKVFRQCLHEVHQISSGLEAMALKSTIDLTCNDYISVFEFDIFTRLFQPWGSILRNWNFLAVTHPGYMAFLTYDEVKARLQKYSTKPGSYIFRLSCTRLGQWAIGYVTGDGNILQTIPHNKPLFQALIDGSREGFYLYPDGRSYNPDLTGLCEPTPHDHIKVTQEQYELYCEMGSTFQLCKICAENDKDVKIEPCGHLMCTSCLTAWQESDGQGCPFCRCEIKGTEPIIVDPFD
T1 sequence (Q13191 36-427): as above

Turning to `Cc1ccc(C(=O)Nc2cccc(C(C)C(F)(F)c3nncn3C)c2)nc1C1CC1` (stereo not shown) [Compound 286, 6-cyclopropyl-N-(3-(1,1-difluoro-1-(4-methyl-4H-1,2,4-triazol-3-yl)propan-2-yl)phenyl)-5-methylpicolinamide], the pIC50 (commonly the IC50 on a negative log10 scale, so that one unit is a factor of ten) in test [1] is 6.52 to 7.00. In addition, in test [2] (setting [6]), the fold induction at 0.3 µM fell in the range of 1.01 to 2.5, the fold induction at 1 µM fell in the range of 1.01 to 2.5 and the fold induction at 4 µM was 2.51 to 5. Also, in test [3] (setting [6]), the fold induction at 0.3 µM was < 1, the fold induction at 1 µM was < 1 and the fold induction at 4 µM is 1.01 to 1.3. In test [4], the negative-log IC50 (pIC50) was ≥ 6.30. The negative-log Kd (pKd) (commonly the Kd on a negative log10 scale, so that one unit is a factor of ten) in test [5] was 6.00 to 6.52.
In the case of `Cn1cnnc1C[C@](C)(F)c1cccc(N2Cc3c(cccc3C(F)(F)F)C2=O)c1` [Compound 298b, (S)-2-(3-(2-fluoro-1-(4-methyl-4H-1,2,4-triazol-3-yl)propan-2-yl)phenyl)-4-(trifluoromethyl)isoindolin-1-one], the pIC50 in test [1] is 6.52 to 7.00. In test [2] (setting [6]), the fold induction at 0.3 µM lay in the range of 1.01 to 2.5, the fold induction at 1 µM is 1.01 to 2.5 and the fold induction at 4 µM is 1.01 to 2.5. Besides, in test [3] (setting [6]), the fold induction at 0.3 µM is 1.01 to 1.3, the fold induction at 1 µM is < 1 and the fold induction at 4 µM was 1.01 to 1.3. Also, the pIC50 in test [4] was ≥ 6.30. The compound also had a pKd in test [5] of 6.52 to 7.00.
Consider `C[C@H](Cc1nncn1C)c1ccnc(NC(=O)c2cccc(C(F)(F)F)n2)c1` [Compound 302, (R)-N-(4-(1-(4-methyl-4H-1,2,4-triazol-3-yl)propan-2-yl)pyridin-2-yl)-6-(trifluoromethyl)picolinamide], for which the pIC50 in test [1] was 6.00 to 6.52. Besides, in test [2] (setting [6]), the fold induction at 0.3 µM was 2.51 to 5, the fold induction at 1 µM is 2.51 to 5 and the fold induction at 4 µM was > 7.5. Besides, in test [3] (setting [6]), the fold induction at 0.3 µM lay in the range of 1.01 to 1.3, the fold induction at 1 µM lay within 1.01 to 1.3 and the fold induction at 4 µM was 1.01 to 1.3. Besides, in test [4], the pIC50 was ≥ 6.00. In test [5], the pKd is 5.52 to 6.00.
Consider `C[C@H](Cc1nncn1C)c1ccnc(N2Cc3c(cccc3C(F)(F)F)C2=O)c1` [Compound 304b, (R)-2-(4-(1-(4-methyl-4H-1,2,4-triazol-3-yl)propan-2-yl)pyridin-2-yl)-4-(trifluoromethyl)isoindolin-1-one], for which the pIC50 in test [1] was 6.00 to 6.52; in test [4], ≥ 6.30. The fold induction at 0.3 µM in test [2] (setting [6]) was < 1; in test [3] (setting [6]), 1.01 to 1.3. For the same compound, the values for the fold induction at 1 µM in test [2] (setting [6]) and in test [3] (setting [6]) were < 1 and 1.01 to 1.3, respectively. In addition, the fold induction at 4 µM lay within 1.01 to 2.5 in test [2] (setting [6]) and 1.31 to 1.5 in test [3] (setting [6]). This compound had a pKd in test [5] of 5.52 to 6.00.
On to `C[C@H](Cc1nncn1C)c1cccc(NC(=O)c2nc(C(F)(F)F)c[nH]2)c1` [Compound 326, (R)-N-(3-(1-(4-methyl-4H-1,2,4-triazol-3-yl)propan-2-yl)phenyl)-4-(trifluoromethyl)-1H-imidazole-2-carboxamide], for which the pIC50 in test [1] was 6.52 to 7.00. Also, in test [2] (setting [6]), the fold induction at 0.3 µM was in the range of 1.01 to 2.5, the fold induction at 1 µM fell in the range of 2.51 to 5 and the fold induction at 4 µM lay within 2.51 to 5. Also, in test [3] (setting [6]), the fold induction at 0.3 µM was in the range of 1.01 to 1.3, the fold induction at 1 µM fell in the range of 1.01 to 1.3 and the fold induction at 4 µM is 1.01 to 1.3. In addition, the negative-log IC50 (pIC50) in test [4] is ≥ 6.52. For the same compound, the pKd in test [5] was 6.52 to 7.00.
As for `Cn1cnnc1[C@@H]1C[C@@H]1c1cccc(NC(=O)c2nc3c(C(F)(F)F)cccc3[nH]2)c1` [Compound 332, N-(3-((1S,2R)-2-(4-methyl-4H-1,2,4-triazol-3-yl)cyclopropyl)phenyl)-4-(trifluoromethyl)-1H-benzo[d]imidazole-2-carboxamide], the values for the negative logarithm of the IC50 (pIC50) in test [1] and in test [4] were 6.52 to 7.00 and ≥ 6.52, respectively. Moreover, the fold induction at 0.3 µM fell in the range of 1.01 to 2.5 in test [2] (setting [6]) and 1.01 to 1.3 in test [3] (setting [6]). In addition, the fold induction at 1 µM in test [2] (setting [6]) lay in the range of 1.01 to 2.5; in test [3] (setting [6]), 1.01 to 1.3. Further, the fold induction at 4 µM was in the range of 2.51 to 5 in test [2] (setting [6]) and 1.01 to 1.3 in test [3] (setting [6]). The negative-log Kd (pKd) in test [5] is 6.00 to 6.52.
Consider `Cc1cc(C(=O)Nc2cccc([C@@](C)(F)C(F)(F)c3nncn3C)c2)nc(C2CC2)n1` [Compound 344, (R)-2-Cyclopropyl-6-methyl-N-(3-(1,1,2-trifluoro-1-(4-methyl-4H-1,2,4-triazol-3-yl)propan-2-yl)phenyl)pyrimidine-4-carboxamide], for which the pIC50 was 6.52 to 7.00 in test [1] and ≥ 6.52 in test [4]. In addition, the fold induction at 0.3 µM in test [2] (setting [6]) is 1.01 to 2.5; in test [3] (setting [6]), 1.01 to 1.3. For the same compound, the fold induction at 1 µM in test [2] (setting [6]) lay within 2.51 to 5; in test [3] (setting [6]) it was 1.31 to 1.5. The fold induction at 4 µM is > 7.5 in test [2] (setting [6]) and 1.31 to 1.5 in test [3] (setting [6]). In test [5], the pKd was > 7.00.
As to `C[C@H](Cc1nncn1C)c1cc(NCCO)nc(N2Cc3c(cccc3C(F)(F)F)C2=O)c1` [Compound 357, (R)-2-(6-(2-hydroxyethylamino)-4-(1-(4-methyl-4H-1,2,4-triazol-3-yl)propan-2-yl)pyridin-2-yl)-4-(trifluoromethyl)isoindolin-1-one], the pIC50 in test [1] was 6.52 to 7.00; in test [4] it was ≥ 6.52. The fold induction at 0.3 µM was 1.01 to 2.5 in test [2] (setting [6]) and 1.01 to 1.3 in test [3] (setting [6]). Further, the fold induction at 1 µM lay within 1.01 to 2.5 in test [2] (setting [6]) and 1.01 to 1.3 in test [3] (setting [6]). The fold induction at 4 µM fell in the range of 2.51 to 5 in test [2] (setting [6]) and 1.01 to 1.3 in test [3] (setting [6]). The same compound showed a negative logarithm of the Kd (pKd) in test [5] of 6.52 to 7.00.
For `C[C@H](Cc1nncn1C)c1cc(-c2cn[nH]c2)nc(N2Cc3c(cccc3C(F)(F)F)C2=O)c1` [Example 684, (R)-2-(4-(1-(4-methyl-4H-1,2,4-triazol-3-yl)propan-2-yl)-6-(1H-pyrazol-4-yl)pyridin-2-yl)-4-(trifluoromethyl)isoindolin-1-one], the values for the pIC50 in test [1] and in test [4] were 6.00 to 6.52 and ≥ 6.00, respectively. The fold induction at 0.3 µM in test [2] (setting [7]) and in test [3] (setting [7]) was < 1 throughout. Besides, the fold induction at 1 µM in test [2] (setting [7]) and in test [3] (setting [7]) was < 1 each time. Besides, the pKd in test [5] is 5.52 to 6.00.
